Key:
[1] = Sweetness enhancement of glucose, fructose or sucrose at 6% SE in water by additive at its threshold level; format: in vivo, human; conditions: from about 6% SE (sucrose control); REB C at 100 ppm, the other compound at 25 ppm
[2] = as above; format: in vivo, human; set-up: key: T: Slight thicker-like sweetness (not intensity factor).; No difference; N(S+): No difference but slightly more sweet (0.5-0.75%); +S: More sweetness intensity (~1.0% SE); ++S: Much more sweetness intensity (~2.0% SE); conditions: room temperature, additive at its Table 1 threshold level; for Sensory result versus FRU 55,000 ppm: fructose at 6% SE in water; for Sensory result versus GLU 99,000 ppm: glucose at 6% SE in water; for Sensory result versus SUC 60,000 ppm: sucrose at 6% SE in water
Experimental: (§1) A first sip (approximately 2.2 mL) of a ca. 20 mL control composition was taken and swallowed. After waiting for a time ranging from 15 to 25 seconds, a second sip of control composition was taken and swallowed, and the sweetness and/or taste of the control composition was noted. After waiting for a time ranging from 15 to 25 seconds, these steps were repeated with a comparative composition. The sweetness and taste differences between the control and the comparative composition were noted. For each tested composition, this cycle was repeated once to confirm the initial findings. All samples were measured at average 23.0° C.±1° C. between samples for consistent comparison and to minimize any effects of temperature on the perceived taste or sweetness of the composition.
(§2) To perform the taste test, three sweetener samples were paired with one additive and taste tested as described above. A three minute break was taken before tasting another three sweetener samples paired with a different additive. Up to 10 additives per day were used to minimize a fatigue factor. Before tasting, at least 1.5 hours elapsed after ingestion of any food, drink or nicotine. The tests were repeated on a different date to validate the initial findings.
The twenty-one entities above were combined in a concentration at the sweetness detection threshold level listed in Table 1, with one of Glucose (GLU), Fructose (FRU), and Sucrose (SUG), each at a fixed SE (Sucrose Equivalents) level of 6%. The sweetness of the compositions was measured as described above at room temperature.

[3] = Sweetness detection threshold level in water, multi-sip and swallow taste method; format: in vivo, human; conditions: for Sweetness Detection Threshold Level: in water at room temperature, single assessor; for Sweetness Threshold Level: estimation sweetness/off-taste threshold in water at room temperature (RT)
Text: As used herein, the terms “sweetness threshold,” “sweetness recognition threshold,” and “sweetness detection threshold” are understood to mean the level at which the lowest known concentration of a certain sweet compound that is perceivable by the human sense of taste and it can vary from person to person. For example, a typical sweetness threshold level for sucrose in water can be 0.5%.
Further for example, the at least one sweetness enhancer to be used can be assayed in water at least 25% lower and at least 25% higher than the sucrose detection level of 0.5% in water to determine the sweetness threshold level.
as §1, §2
The sweetness detection threshold levels for 21 entities were measured by a single assessor in water at room temperature according to the multi-sip and swallow taste method described herein.

[4] = By-products of 500 ppm REB A after two months of storage in phosphoric acid at RT; format: physicochemical; conditions: approximated concentration of by-product of 500 ppm REB A

Row | Molecule | Sweetness of the composition after enhancement [1] | Sensory result versus FRU 55,000 ppm [2] | Sensory result versus GLU 99,000 ppm [2] | Sensory result versus SUC 60,000 ppm [2] | Sweetness Detection Threshold Level [3] [ppm] | Levels After 2 Month of Storage [4] [ppm] | Sweetness Threshold Level [3] [ppm]
1 | Rebaudioside C | about 7 % SE | N(S+) (No difference but slightly more sweet (0.5-0.75%)) | N(S+) (No difference but slightly more sweet (0.5-0.75%)) | +S (More sweetness intensity (~1.0% SE)) | 100 | – | –
2 | C[C@@]12CCC[C@@](C)(C(=O)O[C@@H]3O[C@H](CO)[C@@H](O)[C@H](O)[C@H]3O)[C@H]1CC[C@]13C=C(CO)[C@](O[C@@H]4O[C@H](CO)[C@@H](O)[C@H](O[C@@H]5O[C@H](CO)[C@@H](O)[C@H](O)[C@H]5O)[C@H]4O[C@@H]4O[C@H](CO)[C@@H](O)[C@H](O)[C@H]4O)(CC[C@H]12)C3 [13-[(2-O-β-D-glucopyranosyl-3-O-β-D-glucopyranosyl]-β-D-glucopyranosyl)oxy]-17-hydroxy-kaur-15-en-18-oic acid β-D-glucopyranosyl ester] | – | N | N | N(S+) (No difference but slightly more sweet (0.5-0.75%)) | 250 | 1 | 250
3 | C=C1CC23CCC4C(C)(C(=O)OC5OC(CO)C(O)C(O)C5O)CCCC4(C)C2CCC1(OC1OC(CO)C(O)C(OC2OC(CO)C(O)C(O)C2O)C1OC1OC(CO)C(O)C(OC2OC(CO)C(O)C(O)C2O)C1O)C3 [13-[(2-O-(3-O-α-D-glucopyranosyl)-β-D-glucopyranosyl-3-O-β-D-glucopyranosyl-β-D-glucopyranosyl)oxy] kaur-16-en-18-oic acid β-D-glucopyranosyl ester] | about 7 % SE | N(S+) (No difference but slightly more sweet (0.5-0.75%)) | N(S+) (No difference but slightly more sweet (0.5-0.75%)) | +S (More sweetness intensity (~1.0% SE)) | 25 | – | –
4 | CC1(C(=O)OC2OC(CO)C(O)C(O)C2O)CCCC2(C)C3CCC4(OC5OC(CO)C(O)C(OC6OC(CO)C(O)C(O)C6O)C5OC5OC(CO)C(O)C(O)C5O)CC3(CCC12)CC4(C)O [13-[(2-O-β-D-glucopyranosyl-3-O-β-D-glucopyranosyl-β-D-glucopyranosyl)oxy]-16-hydroxy kauran-18-oic acid β-D-glucopyranosyl ester] | – | N | N | N | 700 | 10 | 700
5 | Rebaudioside B | – | N | N | N | 25 | 17 | 25

Reference: US20110160311A1, “Sweetness Enhancers, Compositions Thereof, and Methods for Use” (The Coca-Cola Company, priority 2009, published 2011)
